The nature of data set [1]: Change in appearance of the salts at room temperature for 24 hours. Conditions: for Initial appearance: dried material; for Appearance (stored at R.T. for 24 hrs) / change in appearance (text summary of Table 4): room temperature, 24 hours. The format is physicochemical. The method, then:
In the case of the suspension and the gel, firstly it was vacuum dried under reduced pressure and secondly vacuum dried for 24 to 48 hours.

Data set [2] can be described thus: Stability evaluation: change in moisture content. The format is physicochemical. The settings on record: open state, room temperature (20 to 25° C., 50% or less), 3 days vs initial; FIG. 2. As to the method:
In order to evaluate the change in moisture content, the compounds according to Examples and Comparative Examples were stored in an open state at room temperature (20 to 25° C., 50% or less), and the change was measured by the difference between the initial moisture content and the moisture content after 3 days.

Data set [3] is described as follows: Stability evaluation: change in appearance under storage conditions. The format is physicochemical. The text has this: In order to evaluate the change in appearance of the compounds according to Comparative Examples and Examples, it was observed after storing each compound in accordance with the conditions shown in Table 6 below.
Data set [4] can be described thus: Stability evaluation: change in the amount of related substances. Conditions: for change (increase) in the amount of related substances: open state, room temperature, 3 days, FIG. 3. The data set is classed as physicochemical.
Data set [5] can be described thus: Solubility of the compound of formula (1) in organic solvents (HPLC). The format is physicochemical.
The mark [6] stands for this setting: 1 day, Acceleration (40±2° C. and 75±5% RH).
[7] abbreviates: 1 day, Long-term (25±2° C. and 60±5% RH).
Setting [8] is: 1 day, Room temperature (20 to 25° C., 50% or less).

The results in this text go back to patent US11655207B2, “Pharmaceutically acceptable salt of alkylcarbamoyl naphthalenyloxy octenoylhydroxy amide or of derivative thereof and method for preparing same” (CRYSTALGENOMICS, INC., priority 2017, dated 2023).

Converted amounts (≈) assume the structure as drawn. Where two headings read alike, the source gives them in different places. A value given as a limit tells only on which side of the number the result lay.

In the case of `CC(=O)O` [Acetic acid], in data set [1], the Initial appearance result is reported as “Foam” and the “Appearance (stored at R.T. for 24 hrs)” value was “Gel-like”.

`O=S(=O)(O)c1ccccc1` [Benzensulfonic acid]: in data set [1], the Initial appearance entry was “Foam” and the “Appearance (stored at R.T. for 24 hrs)” value is on record as “Gel-like”.

For the compound `O=C(O)c1ccccc1` [Benzoic acid], in data set [1], the Initial appearance result is “Foam” and the “Appearance (stored at R.T. for 24 hrs)” value was “Gel-like”.

Regarding `O=C(O)CC(O)(CC(=O)O)C(=O)O` [Citric acid], in data set [1], the Initial appearance result is on record as “Foam” and the “Appearance (stored at R.T. for 24 hrs)” value is “Gel-like”.

Turning to `CN(C)CCCNC(=O)/C(=C/CCCCC(=O)NO)COc1cccc2ccccc12` [Comparative Example 1, alkylcarbamoyl naphthalenyloxy octenoyl hydroxyamide], in data set [2], the “increase in moisture content” value was “about 3%”. Also, the Appearance result is on record as “Gel-like” in data set [3] (setting [6]); “Gel-like” in data set [3] (setting [7]); “Gel-like” in data set [3] (setting [8]); “Gel-like” in data set [3] (1 day, Severe (60±2° C.)); “Foam” in data set [3] (Initial value). In data set [3] (storage conditions of Table 6), the “change in appearance (Table 6)” value is listed as “changed from initial foam such as a sponge to a highly viscous liquid or gel structure”. Besides, in data set [1], the Initial appearance entry is on record as “Foam”. Also, in data set [1], the “Appearance (stored at R.T. for 24 hrs)” value is “Gel-like”. Also, the “change (increase) in the amount of related substances” value in data set [4] is “about 10%”. In addition, the Solubility in data set [5] (1,4-dioxane, 20° C.) was 72.3 mg/mL (≈ 169 mM); in data set [5] (1,4-dioxane, 50° C.) it was 72.3 mg/mL (≈ 169 mM); in data set [5] (1-butanol, 20° C.), over 58.8 mg/mL; in data set [5] (2-propanol, 20° C.), 73.8 mg/mL (≈ 173 mM); in data set [5] (2-propanol, 50° C.), 77.3 mg/mL (≈ 181 mM); in data set [5] (Acetone, 20° C.), 43.3 mg/mL (≈ 101 mM). Further, the Solubility is 43.7 mg/mL (≈ 102 mM) in data set [5] (Acetone, 50° C.); 6.1 mg/mL (≈ 14.3 mM) in data set [5] (Acetonitrile, 20° C.); 16.5 mg/mL (≈ 38.6 mM) in data set [5] (Acetonitrile, 50° C.); 39.6 mg/mL (≈ 92.6 mM) in data set [5] (Butan-2-ol, 20° C.); 72.0 mg/mL (≈ 168 mM) in data set [5] (Butan-2-ol, 50° C.); over 80.7 mg/mL in data set [5] (Chloroform, 20° C.). The Solubility in data set [5] (Dimethyl sulfoxide, 20° C.) is reported as over 70.6 mg/mL; in data set [5] (Ethanol, 20° C.) it was over 77.4 mg/mL; in data set [5] (Ethyl acetate, 20° C.), 4.6 mg/mL (≈ 10.8 mM); in data set [5] (Ethyl acetate, 50° C.) it was 20.3 mg/mL (≈ 47.5 mM); in data set [5] (Methanol, 20° C.), over 68.4 mg/mL; in data set [5] (Methylene Ketone, 20° C.), 66.6 mg/mL (≈ 156 mM). The Solubility in data set [5] (Methylene Ketone, 50° C.) is 69.7 mg/mL (≈ 163 mM); in data set [5] (N,N-dimethylformamide, 20° C.), over 76.6 mg/mL; in data set [5] (Propanol, 20° C.), over 70.3 mg/mL; in data set [5] (Tert-butylmethyl ether, 20° C.) it was 0.8 mg/mL (≈ 1.87 mM); in data set [5] (Tert-butylmethyl ether, 50° C.), 0.8 mg/mL (≈ 1.87 mM); in data set [5] (Tetrahydrofuran, 20° C.) it was over 74.0 mg/mL. For the same compound, the Solubility came to 1.0 mg/mL (≈ 2.34 mM) in data set [5] (Toluene, 20° C.) and 3.3 mg/mL (≈ 7.72 mM) in data set [5] (Toluene, 50° C.).

As to `CCS(=O)(=O)O` [Ethanesulfonic acid], in data set [1], the Initial appearance result is “Foam” and the “Appearance (stored at R.T. for 24 hrs)” value was “Gel-like”.

For `CN(C)CCCNC(=O)/C(=C/CCCCC(=O)NO)COc1cccc2ccccc12.O=C(O)C(O)C(O)C(=O)O` [Example 1, Alkylcarbamoyl Naphthalenyloxy Octenoyl Hydroxyamide Tartaric Acid Salt], the “increase in moisture content” value in data set [2] came out at 2%. The Appearance result was “Gel-like” in data set [3] (setting [6]); “Gel-like” in data set [3] (setting [7]); “Powder” in data set [3] (setting [8]); “Powder” in data set [3] (1 day, Severe (60±2° C.)); “Powder” in data set [3] (Initial value). In data set [1], the Initial appearance entry was “Powder”. Moreover, the “Appearance (stored at R.T. for 24 hrs)” value in data set [1] is “Powder”. Further, the “change in appearance (text summary of Table 4)” value in data set [1] is listed as “no change in appearance was observed”. Besides, in data set [4] (according to temperature and storage period, FIGS. 4 and 5), the “amount of formation of the related substances” value was “maintained in a certain range at a relatively low temperature”. In addition, the “change (increase) in the amount of related substances” value in data set [4] is 0.05%. Besides, the Content was determined as 89.1 (bottle package, 1 day, Acceleration (40±2° C. and 75±5% RH)); 99.1 (bottle package, 1 day, Long-term (25±2° C. and 60±5% RH)); 84.0 (bottle package, 3 days, Acceleration (40±2° C. and 75±5% RH)); 84.1 (bottle package, 3 days, Long-term (25±2° C. and 60±5% RH)); 78.5 (bottle package, 7 days, Acceleration (40±2° C. and 75±5% RH)); 78.5 (bottle package, 7 days, Long-term (25±2° C. and 60±5% RH)). For the same compound, the Content (open state, 1 day, Acceleration (40±2° C. and 75±5% RH)) is listed as 92.3; the Content (open state, 3 days, Severe (60±2° C.)) is 97.2; the Content (open state, 7 days, Room temperature) is listed as 100.1; the Content (open state, 7 days, Severe (60±2° C.)) was determined as 89.1; the Content (open state, Initial value) stood at 98.9; the Content (polyethylene bottle package (added silica gel), Initial value) is given as 98.9. For the same compound, the “change in content (text summary of Tables 7 and 8)” value (open state and bottle package, all storage conditions) is “maintained constant at room temperature regardless of the packaging state”.

`O=C(O)/C=C/C(=O)O` [Fumaric acid]: in data set [1], the Initial appearance entry is “Powder” and the “Appearance (stored at R.T. for 24 hrs)” value is reported as “Gel-like”.

Consider `CN(C)CCCNC(=O)/C(=C/CCCCC(=O)NO)COc1cccc2ccccc12.O=C(O)[C@H](O)[C@@H](O)[C@H](O)[C@H](O)CO` [Gluconic acid, (D−)], for which, in data set [1], the Initial appearance entry is given as “Powder” and the “Appearance (stored at R.T. for 24 hrs)” value is “Gel-like”.

In the case of `O=C(O)CCCC(=O)O` [Glutaric acid], in data set [1], the Initial appearance entry is given as “Powder” and the “Appearance (stored at R.T. for 24 hrs)” value was “Gel-like”.

In the case of `O=C(O)CNC(=O)c1ccccc1` [Hippuric acid], in data set [1], the Initial appearance result is “Foam” and the “Appearance (stored at R.T. for 24 hrs)” value is reported as “Gel-like”.

Turning to `Cl` [Hydrochloric acid], in data set [1], the Initial appearance entry was “Gel-like” and the “Appearance (stored at R.T. for 24 hrs)” value was “Gel-like”.

Turning to `O=C(O)/C=C\C(=O)O` [Maleic acid], in data set [1], the Initial appearance entry is recorded as “Foam” and the “Appearance (stored at R.T. for 24 hrs)” value is listed as “Gel-1ike”.

For `O=C(O)CC(=O)O` [Malonic acid], in data set [1], the Initial appearance entry is given as “Foam” and the “Appearance (stored at R.T. for 24 hrs)” value is listed as “Gel-like”.

Consider `CN(C)CCCNC(=O)/C(=C/CCCCC(=O)NO)COc1cccc2ccccc12.CS(=O)(=O)O` [Methanensulfonic acid], for which, in data set [1], the Initial appearance result was “Foam” and the “Appearance (stored at R.T. for 24 hrs)” value is given as “Gel-like”.

With `O=S(=O)(O)c1ccc2ccccc2c1` [Naphthalene-2-sulfonic acid], in data set [1], the Initial appearance result is given as “Powder” and the “Appearance (stored at R.T. for 24 hrs)” value was “Gel-like”.

Regarding `O=C(O)c1ccc2ccccc2c1O` [Naphthoic acid, 1-hydroxy-2], in data set [1], the Initial appearance entry is recorded as “Powder” and the “Appearance (stored at R.T. for 24 hrs)” value is recorded as “Gel-like”.

Regarding `CCCCCCCCCCCCCCCCCC(=O)O` [Stearic acid], in data set [1], the Initial appearance result is recorded as “Powder”, the “Appearance (stored at R.T. for 24 hrs)” value is listed as “Powder” and the “change in appearance (text summary of Table 4)” value is recorded as “no change in appearance was observed”.

As for `O=C(O)CCC(=O)O` [Succinic acid], in data set [1], the Initial appearance entry is on record as “Powder” and the “Appearance (stored at R.T. for 24 hrs)” value is reported as “Gel-like”.

As to `O=S(=O)(O)O` [Sulfuric acid], in data set [1], the Initial appearance result is listed as “Gel-like” and the “Appearance (stored at R.T. for 24 hrs)” value is given as “Gel-like”.

For the compound `CN(C)CCCNC(=O)/C(=C/CCCCC(=O)NO)COc1cccc2ccccc12.Cc1ccc(S(=O)(=O)O)cc1` [Toluensulfonic acid, para], in data set [1], the Initial appearance entry was “Foam” and the “Appearance (stored at R.T. for 24 hrs)” value is “Gel-like”.

Consider `CN(C)CCCNC(=O)/C(=C/CCCCC(=O)NO)COc1cccc2ccccc12.O=C(O)C(F)(F)F` [Trifluoracetic acid], for which, in data set [1], the Initial appearance result is given as “Ge-1ike” and the “Appearance (stored at R.T. for 24 hrs)” value is reported as “Gel-like”.
